Patent US7098340B2, “Benzyl sulfonamide derivatives” (Warner Lambert Company LLC, priority 2003, dated 2006)

target: T1, androgen receptor (Homo sapiens, UniProt P10275); assay: AR Antagonist Cell Assay (MMTV-luciferase reporter, DHT-stimulated); format: cell-based; settings: MDA-MB453-MMTV clone 54-19 cells; antagonism of 100 pM DHT, 17 hr, luciferase readout
T1 sequence (P10275 1-920 Q868H): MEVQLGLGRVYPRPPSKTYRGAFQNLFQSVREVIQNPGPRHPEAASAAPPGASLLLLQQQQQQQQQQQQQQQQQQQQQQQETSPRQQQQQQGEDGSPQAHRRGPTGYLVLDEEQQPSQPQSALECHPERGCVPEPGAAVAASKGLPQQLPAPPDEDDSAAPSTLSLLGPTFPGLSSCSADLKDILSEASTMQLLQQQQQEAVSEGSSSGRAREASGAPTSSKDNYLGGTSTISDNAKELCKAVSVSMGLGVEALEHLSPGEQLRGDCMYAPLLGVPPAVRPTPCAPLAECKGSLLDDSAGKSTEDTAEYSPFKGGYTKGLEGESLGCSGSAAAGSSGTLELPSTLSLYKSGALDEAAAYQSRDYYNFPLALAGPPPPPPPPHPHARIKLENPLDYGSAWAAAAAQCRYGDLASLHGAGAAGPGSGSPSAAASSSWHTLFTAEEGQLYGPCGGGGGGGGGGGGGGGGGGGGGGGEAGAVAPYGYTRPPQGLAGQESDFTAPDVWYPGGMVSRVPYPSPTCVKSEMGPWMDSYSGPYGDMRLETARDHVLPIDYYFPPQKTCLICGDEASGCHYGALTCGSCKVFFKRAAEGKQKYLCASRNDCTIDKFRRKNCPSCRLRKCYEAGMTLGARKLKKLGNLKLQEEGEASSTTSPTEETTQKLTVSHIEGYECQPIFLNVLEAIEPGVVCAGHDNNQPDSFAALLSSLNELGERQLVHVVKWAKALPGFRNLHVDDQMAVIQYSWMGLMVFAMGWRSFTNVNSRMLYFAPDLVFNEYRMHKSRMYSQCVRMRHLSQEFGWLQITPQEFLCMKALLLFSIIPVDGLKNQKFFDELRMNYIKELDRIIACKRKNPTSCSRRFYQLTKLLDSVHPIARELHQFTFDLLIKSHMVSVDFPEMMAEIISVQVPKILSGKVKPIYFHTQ
In short: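 MDA-MB453 cells stably carrying MMTV-ARE-firefly luciferase, in 1% charcoal-treated serum, preincubated 30 min with compound (10 uM or 1 uM) then stimulated with 100 pM DHT for 17 h at 37° C. Luminescence read; result as % inhibition of DHT fold induction.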

IC50 [µM] | Compound
4.74 | O=c1cc(C(F)(F)F)c2cc(Cc3ccc(S(=O)(=O)Nc4cccc(Cc5ccccc5)c4)cc3)ccc2o1 [Example 149, N-(3-Benzylphenyl)-4-(2-oxo-4-trifluoromethyl-2H-chromen-6-ylmethyl)benzenesulfonamide]
2.01 | O=c1cc(C(F)(F)F)c2cc(Cc3ccc(S(=O)(=O)Nc4ccc(Cl)cc4)cc3)ccc2o1 [Example 135, N-(4-Chlorophenyl)-4-(2-oxo-4-trifluoromethyl-2H-chromen-6-ylmethyl)benzenesulfonamide]
1.72 | O=c1cc(C(F)(F)F)c2cc(Cc3ccc(S(=O)(=O)Nc4cccc(C(F)(F)F)c4)cc3)ccc2o1 [Example 145, 4-(2-Oxo-4-trifluoromethyl-2H-chromen-6-ylmethyl)-N-(3-trifluoromethylphenyl)-benzenesulfonamide]
2.81 | O=c1cc(C(F)(F)F)c2cc(Cc3ccc(S(=O)(=O)Nc4cccc(OC(F)F)c4)cc3)ccc2o1 [Example 143, N-(3-Difluoromethoxyphenyl)-4-(2-oxo-4-trifluoromethyl-2H-chromen-6-ylmethyl)-benzenesulfonamide]
> 10 | O=c1cc(C(F)(F)F)c2cc(Cc3ccc(S(=O)(=O)NC[C@H](O)CO)cc3)ccc2o1 [Example 160, N-(2,3-Dihydroxypropyl)-4-(2-oxo-4-trifluoromethyl-2H-chromen-6-ylmethyl)benzenesulfonamide]
4.73 | O=c1cc(C(F)(F)F)c2cc(Cc3ccc(S(=O)(=O)NCc4ccccc4OC(F)F)cc3)ccc2o1 [Example 199, N-(2-Difluoromethoxybenzyl)-4-(2-oxo-4-trifluoromethyl-2H-chromen-6-ylmethyl)benzenesulfonamide]
6.09 | O=c1cc(C(F)(F)F)c2cc(Cc3ccc(S(=O)(=O)NC4CCN(Cc5ccccc5)CC4)cc3)ccc2o1 [Example 157, N-(1-Benzylpipendin-4-yl)-4-(2-oxo-4-trifluoromethyl-2H-chromen-6-ylmethyl)benzenesulfonamide]
4.04 | O=c1cc(C(F)(F)F)c2cc(Cc3ccc(S(=O)(=O)NCc4ccccc4C(F)(F)F)cc3)ccc2o1 [Example 201, 4-(2-Oxo-4-trifluoromethyl-2H-chromen-6-ylmethyl)-N-(2-trifluoromethylbenzyl)-benzenesulfonamide]
~10 | O=c1cc(C(F)(F)F)c2cc(Cc3ccc(S(=O)(=O)NCC4CCCCC4)cc3)ccc2o1 [Example 165, N-Cyclohexylmethyl-4-(2-oxo-4-trifluoromethyl-2H-chromen-6-ylmethyl)benzene-sulfonamide]
3.24 | COc1cc(NS(=O)(=O)c2ccc(Cc3ccc4oc(=O)cc(C(F)(F)F)c4c3)cc2)cc(OC)c1 [Example 141, N-(3,5-Dimethoxyphenyl)-4-(2-oxo-4-trifluoromethyl-2H-chromen-6-ylmethyl)-benzenesulfonamide]
> 10 | O=c1cc(C(F)(F)F)c2cc(Cc3ccc(S(=O)(=O)Nc4cc5ccccc5cn4)cc3)ccc2o1 [Example 136, N-Isoquinolin-3-yl-4-(2-oxo-4-trifluoromethyl-2H-chromen-6-ylmethyl)benzenesulfonamide]
3.91 | CC(C)c1ccc(NS(=O)(=O)c2ccc(Cc3ccc4oc(=O)cc(C(F)(F)F)c4c3)cc2)cc1 [Example 130, N-(4-Isopropylphenyl)-4-(2-oxo-4-trifluoromethyl-2H-chromen-6-ylmethyl)-benzenesulfonamide]
5.81 | Cc1cccc(CNS(=O)(=O)c2ccc(Cc3ccc4oc(=O)cc(C(F)(F)F)c4c3)cc2)c1 [Example 169, N-(3-Methylbenzyl)-4-(2-oxo-4-trifluoromethyl-2H-chromen-6-ylmethyl)benzenesulfonamide]

The next lines start with the compound.

Compound | IC50 [µM]
O=c1cc(C(F)(F)F)c2cc(Cc3ccc(S(=O)(=O)NCCO)cc3)ccc2[nH]1 [Example 51, N-(2-Hydroxyethyl)-4-(2-oxo-4-trifluoromethyl-1,2-dihydroquinolin-6-ylmethyl)-benzenesulfonamide] | 2.18
CCc1cccc(NS(=O)(=O)c2ccc(Cc3ccc4oc(=O)cc(C(F)(F)F)c4c3)cc2)c1 [Example 119, N-(3-Ethylphenyl)-4-(2-oxo-4-trifluoromethyl-2H-chromen-6-ylmethyl)-benzenesulfonamide] | 3.42
CN(c1ccccc1)S(=O)(=O)c1ccc(Cc2ccc3oc(=O)cc(C(F)(F)F)c3c2)cc1 [Example 114, N-Methyl-4-(2-oxo-4-trifluoromethyl-2H-chromen-6-ylmethyl)-N-phenylbenzenesulfonamide] | 5.94
CCCCCN(CCO)S(=O)(=O)c1ccc(Cc2ccc3oc(=O)cc(C(F)(F)F)c3c2)cc1 [Example 105] | 3.52
O=c1cc(C(F)(F)F)c2cc(Cc3ccc(S(=O)(=O)NCCCCc4ccccc4)cc3)ccc2[nH]1 [Example 70, 4-(2-Oxo-4-trifluoromethyl-1,2-dihydroquinolin-6-ylmethyl)-N-(4-phenylbutyl)-benzenesulfonamide] | > 10
O=c1cc(C(F)(F)F)c2cc(Cc3ccc(S(=O)(=O)N(Cc4ccccc4)Cc4ccccc4)cc3)ccc2o1 [Example 109, N,N-Dibenzyl-4-(2-oxo-4-trifluoromethyl-2H-chromen-6-ylmethyl)benzenesulfonamide] | 8.26
O=c1cc(C(F)(F)F)c2cc(Cc3ccc(S(=O)(=O)NCc4c(F)cccc4Cl)cc3)ccc2[nH]1 [Example 78, N-(2-Chloro-6-fluorobenzyl)-4-(2-oxo-4-trifluoromethyl-1,2-dihydroquinolin-6-ylmethyl)-benzenesulfonamide] | > 10
COc1ccc(N(Cc2ccccc2)S(=O)(=O)c2ccc(Cc3ccc4[nH]c(=O)cc(C(F)(F)F)c4c3)cc2)cc1 [Example 45, N-Benzyl-N-(4-methoxyphenyl)-4-(2-oxo-4-trifluoromethyl-1,2-dihydroquinolin-6-ylmethyl)-benzenesulfonamide] | > 10
O=c1cc(C(F)(F)F)c2cc(Cc3ccc(S(=O)(=O)Nc4ccccc4)cc3)ccc2o1 [Example 113, 4-(2-Oxo-4-trifluoromethyl-2H-chromen-6-ylmethyl)-N-phenylbenzenesulfonamide] | 0.72
O=c1cc(C(F)(F)F)c2cc(Cc3ccc(S(=O)(=O)NCc4cccc(Cl)c4F)cc3)ccc2[nH]1 [Example 77, N-(3-Chloro-2-fluorobenzyl)-4-(2-oxo-4-trifluoromethyl-1,2-dihydroquinolin-6-ylmethyl)-benzenesulfonamide] | > 10
O=c1cc(C(F)(F)F)c2cc(Cc3ccc(S(=O)(=O)NCCc4ccccn4)cc3)ccc2[nH]1 [Example 59, 4-(2-Oxo-4-trifluoromethyl-1,2-dihydroquinolin-6-ylmethyl)-N-(2-pyridin-2-ylethyl)-benzenesulfonamide] | 9.25
CC(=O)c1cccc(NS(=O)(=O)c2ccc(Cc3ccc4oc(=O)cc(C(F)(F)F)c4c3)cc2)c1 [Example 129, N-(3-Acetylphenyl)-4-(2-oxo-4-trifluoromethyl-2H-chromen-6-ylmethyl)benzenesuifonamide] | 2.16
O=c1cc(C(F)(F)F)c2cc(Cc3ccc(S(=O)(=O)Nc4cccc(OCc5ccccc5)c4)cc3)ccc2[nH]1 [Example 44, N-(3-Benzyloxyphenyl)-4-(2-oxo-4-trifluoromethyl-1,2-dihydroquinolin-6-ylmethyl)-benzenesulfonamide] | 2.8
